Measurements taken from ChEMBL document CHEMBL5647694, “Novel orally bioavailable EZH1/2 dual inhibitors with greater antitumor efficacy than an EZH2 selective inhibitor” (Cancer Sci, 2017).

What was measured:
[1] = target: Protein kinase C theta type (Homo sapiens) (UniProt Q04759); assay: Inhibition of N-terminal GST-fused human full length PKC-theta (1 to 706 residues ) expressed in baculovirus expression system using PKC peptide as substrate at 1 uM in presence of ATP by Mobility shift assay
[2] = target: Protein-tyrosine kinase 2-beta (Homo sapiens) (UniProt Q14289); assay: Inhibition of N-terminal GST-tagged full length human PYK2 (1 to 967 residues) expressed in baculovirus-infected Sf21 cells using Blk/Lyntide as substrate at 1 uM in presence of ATP by Mobility shift assay
[3] = target: Tyrosine-protein kinase Lyn (Homo sapiens) (UniProt P07948); assay: Inhibition of N-terminal GST-tagged full length human LynA(1 to 512 residues ) expressed in baculovirus-infected Sf21 cells using Srctide as substrate at 1 uM in presence of ATP by Mobility shift assay
[4] = target: Serine/threonine-protein kinase Nek6 (Homo sapiens) (UniProt Q9HC98); assay: Inhibition of N-terminal GST-fused full length human NEK6 (1 to 313 residues) expressed in baculovirus expression system using CDK7 peptide as substrate at 1 uM in presence of ATP by Mobility shift assay
[5] = target: Ephrin type-A receptor 6 (Homo sapiens) (UniProt Q9UF33); assay: Inhibition of N-terminal GST-fused human EPHA6 cytoplasmic domain (683 to 1130 residues) expressed in baculovirus-infected Sf21 cells using Blk/Lyntide as substrate at 1 uM in presence of ATP by Mobility shift assay
[6] = target: Ribosomal protein S6 kinase beta-2 (Homo sapiens) (UniProt Q9UBS0); assay: Inhibition of N-terminal GST-fused full length human p70S6Kbeta (1 to 482 residues) expressed in baculovirus expression system using S6K2 peptide as substrate at 1 uM in presence of ATP by Mobility shift assay
[7] = target: Tyrosine-protein kinase ABL1 (Homo sapiens) (UniProt P00519); assay: Inhibition of N-terminal His-tagged wild type human ABL (2 to 1130 residues) expressed in baculovirus-infected Sf21 cells using ABLtide as substrate at 1 uM in presence of ATP by Mobility shift assay
[8] = target: Dual specificity protein kinase CLK3 (Homo sapiens) (UniProt P49761); assay: Inhibition of N-terminal GST-fused full length human CLK3 (1 to 490 residues) expressed in baculovirus expression system using DYRKtide-F as substrate at 1 uM in presence of ATP by Mobility shift assay
[9] = target: Calcium/calmodulin-dependent protein kinase type II subunit gamma (Homo sapiens) (UniProt Q13555); assay: Inhibition of N-terminal GST-tagged full length human CAMK2g (1 to 518 residues) expressed in baculovirus-infected Sf21 cells using GS peptide as substrate at 1 uM in presence of ATP by Mobility shift assay
[10] = target: MAP/microtubule affinity-regulating kinase 3 (Homo sapiens) (UniProt P27448); assay: Inhibition of N-terminal GST-fused full length human MARK3 (1 to 729 residues) expressed in baculovirus expression system using CHKtide as substrate at 1 uM in presence of ATP by Mobility shift assay
[11] = target: Tyrosine-protein kinase Fer (Homo sapiens) (UniProt P16591); assay: Inhibition of N-terminal GST-fused full length human FER (1 to 822 residues) expressed in baculovirus-infected Sf21 cells using Srctide as substrate at 1 uM in presence of ATP by Mobility shift assay
[12] = target: Mitogen-activated protein kinase kinase kinase kinase 4 (Homo sapiens) (UniProt O95819); assay: Inhibition of N-terminal GST-fused human HGK catalytic domain (1 to 328 residues) expressed in baculovirus expression system using Moesin-derived peptide as substrate at 1 uM in presence of ATP by Mobility shift assay
[13] = target: Myosin light chain kinase 2, skeletal/cardiac muscle (Homo sapiens) (UniProt Q9H1R3); assay: Inhibition of N-terminal GST-fused full length human skMLCK (1 to 596 residues) expressed in baculovirus expression system using MLCtide as substrate at 1 uM in presence of ATP by Mobility shift assay
[14] = target: Tyrosine-protein kinase ITK/TSK (Homo sapiens) (UniProt Q08881); assay: Inhibition of N-terminal GST-fused full length human ITK (2 to 620 residues) expressed in baculovirus-infected Sf21 cells using Srctide as substrate at 1 uM in presence of ATP by Mobility shift assay
[15] = target: Aurora kinase A (Homo sapiens) (UniProt O14965); assay: Inhibition of N-terminal GST-fused full length human AurA (1 to 403 residues) expressed in baculovirus-infected Sf21 cells using Kemptide as substrate at 1 uM in presence of ATP by Mobility shift assay
[16] = target: Misshapen-like kinase 1 (Homo sapiens) (UniProt Q8N4C8); assay: Inhibition of N-terminal GST-fused human MINK catalytic domain (1 to 314 residues) expressed in baculovirus expression system using Modified Erktide as substrate at 1 uM in presence of ATP by Mobility shift assay
[17] = target: Serine/threonine-protein kinase DCLK2 (Homo sapiens) (UniProt Q8N568); assay: Inhibition of N-terminal GST-fused truncated human DCAMKL2 (1 to 691 residues) expressed in baculovirus expression system using GS peptide as substrate at 1 uM in presence of ATP by Mobility shift assay
[18] = target: cGMP-dependent protein kinase 1 (Homo sapiens) (UniProt Q13976); assay: Inhibition of N-terminal GST-fused human full length […] (1 to 686 residues) expressed in baculovirus expression system using Kemptide as substrate at 1 uM in presence of ATP by Mobility shift assay
[19] = target: Aurora kinase C (Homo sapiens) (UniProt Q9UQB9); assay: Inhibition of N-terminal GST-fused full length human AurC (1 to 275 residues) expressed in baculovirus-infected Sf21 cells using Kemptide as substrate at 1 uM in presence of ATP by Mobility shift assay
[20] = target: Serine/threonine-protein kinase SIK1 (Homo sapiens) (UniProt P57059); assay: Inhibition of N-terminal GST-fused full length human SIK (1 to 783 residues) expressed in baculovirus expression system using AMARA peptide as substrate at 1 uM in presence of ATP by Mobility shift assay
[21] = target: Proto-oncogene tyrosine-protein kinase ROS (Homo sapiens) (UniProt P08922); assay: Inhibition of N-terminal GST-tagged human ROS cytoplasmic domain (1883 to 2347 residues) expressed in baculovirus-infected Sf21 cells using IRS1 as substrate at 1 uM in presence of ATP by Mobility shift assay
[22] = target: CDK2/Cyclin A2 (Homo sapiens) (UniProt P24941+P20248); assay: Inhibition of N-terminal GST-tagged full length human CDK2 (1 to 298 residues)/GST-tagged human CyclinA2 (1 to 432 residues) expressed in baculovirus-infected Sf21 cells using Modified Histone H1 as substrate at 1 uM in presence of ATP by Mobility shift assay

Aurora kinase A (Homo sapiens), sequence (O14965 whole entry, the tested form may be a part): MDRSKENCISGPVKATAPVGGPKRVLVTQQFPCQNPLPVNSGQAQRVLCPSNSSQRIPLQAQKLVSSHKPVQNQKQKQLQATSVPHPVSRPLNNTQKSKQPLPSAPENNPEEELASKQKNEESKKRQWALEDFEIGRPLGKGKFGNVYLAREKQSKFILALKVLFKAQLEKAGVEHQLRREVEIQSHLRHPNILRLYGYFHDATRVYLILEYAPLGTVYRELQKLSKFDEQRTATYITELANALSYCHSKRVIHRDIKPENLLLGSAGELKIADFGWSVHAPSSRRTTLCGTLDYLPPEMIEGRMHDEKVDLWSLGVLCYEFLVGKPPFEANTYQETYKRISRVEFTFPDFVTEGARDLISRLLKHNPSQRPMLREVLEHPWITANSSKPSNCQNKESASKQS
Serine/threonine-protein kinase SIK1 (Homo sapiens), sequence (P57059 whole entry, the tested form may be a part): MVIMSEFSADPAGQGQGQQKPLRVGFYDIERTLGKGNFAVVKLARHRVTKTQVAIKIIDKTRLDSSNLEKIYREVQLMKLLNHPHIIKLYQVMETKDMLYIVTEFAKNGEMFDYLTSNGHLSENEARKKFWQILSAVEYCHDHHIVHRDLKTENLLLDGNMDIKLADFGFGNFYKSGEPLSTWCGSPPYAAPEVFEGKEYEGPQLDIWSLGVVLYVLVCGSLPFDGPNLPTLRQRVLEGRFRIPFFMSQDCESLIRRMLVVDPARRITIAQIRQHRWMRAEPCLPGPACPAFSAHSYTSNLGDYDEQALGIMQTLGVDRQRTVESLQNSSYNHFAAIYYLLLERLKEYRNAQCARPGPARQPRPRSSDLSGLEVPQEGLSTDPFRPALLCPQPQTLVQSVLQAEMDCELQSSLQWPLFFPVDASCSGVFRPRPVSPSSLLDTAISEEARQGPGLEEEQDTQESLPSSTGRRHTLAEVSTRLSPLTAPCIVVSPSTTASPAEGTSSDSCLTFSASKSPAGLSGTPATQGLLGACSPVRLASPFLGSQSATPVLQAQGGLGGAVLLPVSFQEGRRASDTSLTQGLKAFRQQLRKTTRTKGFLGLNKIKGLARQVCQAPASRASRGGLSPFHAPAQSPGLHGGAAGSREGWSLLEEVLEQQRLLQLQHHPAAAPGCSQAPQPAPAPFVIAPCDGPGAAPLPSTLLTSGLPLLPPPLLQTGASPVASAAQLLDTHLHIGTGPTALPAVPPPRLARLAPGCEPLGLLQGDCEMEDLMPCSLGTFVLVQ
Calcium/calmodulin-dependent protein kinase type II subunit gamma (Homo sapiens), sequence (Q13555 whole entry, the tested form may be a part): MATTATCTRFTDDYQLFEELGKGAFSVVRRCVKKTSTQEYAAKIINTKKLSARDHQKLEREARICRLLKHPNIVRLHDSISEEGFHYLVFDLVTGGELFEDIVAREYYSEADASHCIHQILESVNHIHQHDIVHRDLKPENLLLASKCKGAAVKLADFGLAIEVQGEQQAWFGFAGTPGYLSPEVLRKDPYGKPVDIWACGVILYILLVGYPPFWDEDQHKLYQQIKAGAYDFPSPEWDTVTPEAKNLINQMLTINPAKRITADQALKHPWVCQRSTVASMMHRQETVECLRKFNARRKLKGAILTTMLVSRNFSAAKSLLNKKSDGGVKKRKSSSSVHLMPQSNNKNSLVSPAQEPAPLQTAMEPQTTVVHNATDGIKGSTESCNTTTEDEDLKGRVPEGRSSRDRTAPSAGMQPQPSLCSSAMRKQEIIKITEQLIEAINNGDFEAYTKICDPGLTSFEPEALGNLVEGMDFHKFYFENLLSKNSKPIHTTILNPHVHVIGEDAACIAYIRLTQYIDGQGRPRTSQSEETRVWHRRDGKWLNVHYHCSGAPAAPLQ
Dual specificity protein kinase CLK3 (Homo sapiens), sequence (P49761 whole entry, looked up, the tested form may be a part): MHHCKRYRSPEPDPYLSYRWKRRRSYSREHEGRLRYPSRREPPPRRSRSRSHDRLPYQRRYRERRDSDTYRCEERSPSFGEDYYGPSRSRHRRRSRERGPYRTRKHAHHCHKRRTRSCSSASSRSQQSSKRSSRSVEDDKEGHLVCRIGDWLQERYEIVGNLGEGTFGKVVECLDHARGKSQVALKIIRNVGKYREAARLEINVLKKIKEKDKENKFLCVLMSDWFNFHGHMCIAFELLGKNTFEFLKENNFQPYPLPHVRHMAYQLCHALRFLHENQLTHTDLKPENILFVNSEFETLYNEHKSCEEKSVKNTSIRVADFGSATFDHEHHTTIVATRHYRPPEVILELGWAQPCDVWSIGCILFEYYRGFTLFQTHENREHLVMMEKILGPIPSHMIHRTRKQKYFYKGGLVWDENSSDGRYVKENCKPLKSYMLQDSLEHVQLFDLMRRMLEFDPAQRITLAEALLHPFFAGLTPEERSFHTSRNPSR
Ephrin type-A receptor 6 (Homo sapiens), sequence (Q9UF33 whole entry, the tested form may be a part): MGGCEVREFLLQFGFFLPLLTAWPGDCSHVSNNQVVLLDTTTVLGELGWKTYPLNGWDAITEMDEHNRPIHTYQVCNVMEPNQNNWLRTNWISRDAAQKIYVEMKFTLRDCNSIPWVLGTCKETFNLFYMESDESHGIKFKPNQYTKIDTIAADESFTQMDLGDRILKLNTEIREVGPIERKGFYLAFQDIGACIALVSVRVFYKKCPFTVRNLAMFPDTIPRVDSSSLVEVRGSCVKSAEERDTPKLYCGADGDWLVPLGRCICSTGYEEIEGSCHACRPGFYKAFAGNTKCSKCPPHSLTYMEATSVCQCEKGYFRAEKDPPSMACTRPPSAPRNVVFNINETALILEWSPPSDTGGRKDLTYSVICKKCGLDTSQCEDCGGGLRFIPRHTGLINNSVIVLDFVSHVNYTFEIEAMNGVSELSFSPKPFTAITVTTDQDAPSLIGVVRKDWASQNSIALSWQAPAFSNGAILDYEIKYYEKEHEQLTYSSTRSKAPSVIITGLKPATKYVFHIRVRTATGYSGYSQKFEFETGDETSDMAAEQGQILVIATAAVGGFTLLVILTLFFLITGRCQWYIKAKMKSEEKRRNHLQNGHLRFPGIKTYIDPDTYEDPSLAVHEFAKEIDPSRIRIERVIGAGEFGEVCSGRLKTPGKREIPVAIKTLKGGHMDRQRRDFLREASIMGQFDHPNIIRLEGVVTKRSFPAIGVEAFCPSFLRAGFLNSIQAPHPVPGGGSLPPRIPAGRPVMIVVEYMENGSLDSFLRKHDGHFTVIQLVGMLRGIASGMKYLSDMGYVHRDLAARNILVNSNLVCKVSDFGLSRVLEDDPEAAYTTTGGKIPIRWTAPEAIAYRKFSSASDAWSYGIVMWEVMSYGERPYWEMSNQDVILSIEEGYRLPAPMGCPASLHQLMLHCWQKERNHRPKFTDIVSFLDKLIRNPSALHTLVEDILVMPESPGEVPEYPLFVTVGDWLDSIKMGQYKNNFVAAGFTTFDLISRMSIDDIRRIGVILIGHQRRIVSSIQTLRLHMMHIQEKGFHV
Serine/threonine-protein kinase Nek6 (Homo sapiens), sequence (Q9HC98 whole entry, the tested form may be a part): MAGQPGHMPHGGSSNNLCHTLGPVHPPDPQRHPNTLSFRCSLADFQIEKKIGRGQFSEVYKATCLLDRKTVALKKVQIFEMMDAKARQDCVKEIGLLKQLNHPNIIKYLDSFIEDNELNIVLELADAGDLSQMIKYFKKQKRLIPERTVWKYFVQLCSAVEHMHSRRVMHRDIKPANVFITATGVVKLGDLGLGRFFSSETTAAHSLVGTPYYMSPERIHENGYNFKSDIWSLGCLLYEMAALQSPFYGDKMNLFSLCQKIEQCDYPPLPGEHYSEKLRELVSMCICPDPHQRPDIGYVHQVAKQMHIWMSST
cGMP-dependent protein kinase 1 (Homo sapiens), sequence (Q13976 whole entry, the tested form may be a part): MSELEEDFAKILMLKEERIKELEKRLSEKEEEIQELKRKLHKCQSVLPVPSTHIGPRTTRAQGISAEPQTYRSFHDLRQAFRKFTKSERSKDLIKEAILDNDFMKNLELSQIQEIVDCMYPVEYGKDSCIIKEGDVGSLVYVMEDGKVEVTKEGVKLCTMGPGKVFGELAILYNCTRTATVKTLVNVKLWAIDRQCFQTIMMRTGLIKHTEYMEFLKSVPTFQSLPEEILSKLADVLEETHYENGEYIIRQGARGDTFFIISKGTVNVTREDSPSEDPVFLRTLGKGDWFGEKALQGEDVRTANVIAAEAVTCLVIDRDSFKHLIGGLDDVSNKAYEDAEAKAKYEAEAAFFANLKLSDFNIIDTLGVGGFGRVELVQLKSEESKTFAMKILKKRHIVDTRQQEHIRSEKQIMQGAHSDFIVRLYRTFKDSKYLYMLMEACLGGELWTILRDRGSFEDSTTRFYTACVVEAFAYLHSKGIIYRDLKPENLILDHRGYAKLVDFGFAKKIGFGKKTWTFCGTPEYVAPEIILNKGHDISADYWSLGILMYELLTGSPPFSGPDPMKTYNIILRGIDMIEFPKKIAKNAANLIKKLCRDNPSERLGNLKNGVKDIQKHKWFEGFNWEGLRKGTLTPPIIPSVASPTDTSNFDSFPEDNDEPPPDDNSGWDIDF
Tyrosine-protein kinase Lyn (Homo sapiens), sequence (P07948 2-512 limits assumed): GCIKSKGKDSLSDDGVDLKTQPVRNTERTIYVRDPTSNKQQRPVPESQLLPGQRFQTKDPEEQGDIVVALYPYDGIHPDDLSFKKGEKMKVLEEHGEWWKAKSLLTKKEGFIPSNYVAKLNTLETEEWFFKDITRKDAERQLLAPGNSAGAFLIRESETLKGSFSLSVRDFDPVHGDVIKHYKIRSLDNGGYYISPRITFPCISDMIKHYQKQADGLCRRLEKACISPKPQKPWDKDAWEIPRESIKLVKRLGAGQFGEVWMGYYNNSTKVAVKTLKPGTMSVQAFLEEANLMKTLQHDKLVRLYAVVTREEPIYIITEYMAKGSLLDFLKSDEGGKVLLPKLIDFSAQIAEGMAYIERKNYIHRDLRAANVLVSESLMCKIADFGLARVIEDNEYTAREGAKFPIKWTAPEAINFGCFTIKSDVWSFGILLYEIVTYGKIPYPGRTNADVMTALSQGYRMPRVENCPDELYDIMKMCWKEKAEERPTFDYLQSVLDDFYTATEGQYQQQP

Structure (SMILES)	inhibition [1] [%]	inhibition [2] [%]	inhibition [3] [%]	inhibition [4] [%]	inhibition [5] [%]	inhibition [6] [%]	inhibition [7] [%]	inhibition [8] [%]	inhibition [9] [%]	inhibition [10] [%]	inhibition [11] [%]	inhibition [12] [%]	inhibition [13] [%]	inhibition [14] [%]	inhibition [15] [%]	inhibition [16] [%]	inhibition [17] [%]	inhibition [18] [%]	inhibition [19] [%]	inhibition [20] [%]	further results
Cc1cc(C)c(CNC(=O)c2cc(Cl)c3c(c2C)O[C@@](C)([C@H]2CC[C@H](N(C)C)CC2)O3)c(=O)[nH]1 [VALEMETOSTAT]	-0.6	2.8	-3.7	0.7	0.1	5.2	-8	1.6	-5.4	5.7	-3.7	0.4	-1.6	-5.8	-0.5	-4.6	-5.4	-2.1	21.9	6.2	inhibition [21]: -0.9%; inhibition [22]: 3%
Cc1cc(C)c(CNC(=O)c2cc(Br)c3c(c2C)O[C@@](C)([C@H]2CC[C@H](N(C)C)CC2)O3)c(=O)[nH]1	6.6	3	-3.7	-0.1	-3.8	2.1	-5.7	-2	-4.8	0.7	0.1	-0.2	2.4	-5.6	0.6	-2.6	-2.7	-4.3	-9.2	-3.1	inhibition [21]: -2.1%; inhibition [22]: -0.3%
